The test system of the experiment is adult rat lavaged lungs. In words: Isolated rat lavaged lung model (pressure-volume curves). On the procedure: Preparation of Artificial Surfactants. For triplicate samples of the synthetic lung surfactants 75 mg of DPPC (L-α-dipalmitoylphosphatidylcholine; >99% pure; Avanti Polar Lipids, Birmingham, Ala.) in 1 ml of chloroform were dried under a stream of nitrogen and placed in a lyophilizer overnight to remove traces of organic solvent. To the dry lipid mixture were added 9 ml of water. The preparation was incubated for 1 hr at 45°-50° C. with occasional vortexing. Then, in some samples, […] of dry test peptide were added to the aqueous preparation. The preparations were mildly sonicated with and without peptide in a cleaning bath sonicator (Branson 1200) at 45°-50° C. for 2 h to promote peptide dispersion and peptide-lipid interactions. The resulting lipid-peptide mixtures were divided into three parts, lyophilized and stored at -20° C.
The experimental procedures for animal preparation, pressure-volume curve registration and lung lavage have been described by the rat lung model (Ikegami, et al., (1979) Pediatr. Res. 13, 777-780) as modified by McLean et al., Am. J. Physiol. (1992), L292-L300. Briefly, the lungs of adult rats were suspended in 0.9% saline at 37° C. were connected to a water manometer and an air-filled syringe by a T-tube. The deflation limb of a pressure-volume curve was recorded prior to lavage, after extensive lavage with 0.9% NaCl, 10 mM HEPES, pH 7.4 and after administration of surfactant mixtures in 2 ml of 0.9% NaCl, 10 mM HEPES buffer, pH 7.40. The deflation limbs of the pressure-volume (P-V) curves in adult rat lungs were analyzed by calculating the total lung capacities (% TLC) at 5 and 10 cm H2 O pressure (PC5 and PC10). The per cent of total lung capacities at 5 and 10 cm of H2 O (PC5 and PC10) were measured after addition of the synthetic lung surfactants to adult rat lavaged lungs at a dose of 25 mg of lipid (32 umoles) and 1 mg of peptide. Restorations are based on PC5. […] Comparisons were based on restoration,i.e. for PC5, ([…])×100%/(PC5.sbsb.(sufficient) -PC5.sbsb.(deficient)) and made by one-way analysis of variance using the GLM procedure with specific contrasts of the means (SAS Institute Inc., Cary, N.C.).
References, consisting of DPPC alone and dog lung surfactant, respectively,were employed as reference standards: Reference I was prepared as follows. DPPC was purchased from Avanti Polar Lipids. 25 mg of DPPC in chloroform was dried under a stream of nitrogen and lyophilized to remove traces of organic solvent. To the dry lipid mixture was added 3 ml of water. The preparation was incubated at 45° C. for 1 hour with ultrasonication in a bath sonicator. The lipid was lyophilized, stored at 4° C. for up to one week and mixed with 9 ml of 0.9% NaCl, 20 mM HEPES buffer, pH 7.40. […]

[1] abbreviates: deflation limb of P-V curve, adult rat lavaged lungs, dose 25 mg lipid and 1 mg peptide, mean ± S.E.

With `CCCCCCCCCCCCCCCC(=O)OC[C@H](COP(=O)([O-])OCC[N+](C)(C)C)OC(=O)CCCCCCCCCCCCCCC` [Reference I, L-α-dipalmitoylphosphatidylcholine], under “adult rat lung model, stated in words”, the “effect on improving the compliance of the rat lung” value was “no effect”. Besides, the “Restoration (%)” value (based on PC5 relative to sufficient and deficient lungs, mean ± S.E.) is -11 ± 8%. Under setting [1], the “PC5 (% TLC), per cent of total lung capacity at 5 cm H2O” value was found to be 13 ± 1 % TLC and the “PC10 (% TLC), per cent of total lung capacity at 10 cm H2O” value turned out to be 31 ± 2 % TLC.

These data come from patent US5861481A, “Peptide lung surfactants and therapeutic combinations” (Merrell Pharmaceuticals Inc., priority 1997, dated 1999).
